The text below walks through data of patent US20020106375A1, “Non-cytolytic soluble factor from activated-expanded CD4 cells” (priority 2000, published 2002).

Assay [1] deals with caspase-3. The experiment in a line: Caspase-3 activity, colorimetric, colorectal cancer cells. The format is cell-based, human. The protocol: (§1) Caspase-3 and caspase-8 activities were determined using a calorimetric assay kit (R&D Systems, Inc., Minneapolis, Minn.). Assays were conducted according to the instructions of the manufacturer.
For assay [2], the system named is FasR (CD95) of LS513 cells. Description: FasR (CD95) expression by flow cytometry, LS513. The format is cell-based, human. The procedure:
(§2) Flow cytometry was used to assess FasR expression and cell cycle. Analysis of cell cycle was performed using propidium iodide on a Coulter EPICS Elite flow cytometer (Coulter Corporation) equipped with a 488 nm, 15 mW, air-cooled Argon laser. […] Optical laser alignment calibration of the flow cytometer was performed using Coulter's DNA-Check EPICS alignment fluorosphere beads with coefficient of variations routinely less than 2%. PI fluorescent light emission was collected through a 610 nm, long-pass transmission filter. PI signal was measured in linear mode and extended analysis of DNA content was performed using the ModFit LT program (Verity Software House, Inc., Topsham, Me.). Data are presented as the percentage of cells in G1-G0, S and G2-M.

The target of assay [3] is T1, topoisomerase I-DNA complexes (Homo sapiens, UniProt P11387).
T1 construct: endogenous in cells; host or cells: LS513
T1 sequence (P11387 1-765): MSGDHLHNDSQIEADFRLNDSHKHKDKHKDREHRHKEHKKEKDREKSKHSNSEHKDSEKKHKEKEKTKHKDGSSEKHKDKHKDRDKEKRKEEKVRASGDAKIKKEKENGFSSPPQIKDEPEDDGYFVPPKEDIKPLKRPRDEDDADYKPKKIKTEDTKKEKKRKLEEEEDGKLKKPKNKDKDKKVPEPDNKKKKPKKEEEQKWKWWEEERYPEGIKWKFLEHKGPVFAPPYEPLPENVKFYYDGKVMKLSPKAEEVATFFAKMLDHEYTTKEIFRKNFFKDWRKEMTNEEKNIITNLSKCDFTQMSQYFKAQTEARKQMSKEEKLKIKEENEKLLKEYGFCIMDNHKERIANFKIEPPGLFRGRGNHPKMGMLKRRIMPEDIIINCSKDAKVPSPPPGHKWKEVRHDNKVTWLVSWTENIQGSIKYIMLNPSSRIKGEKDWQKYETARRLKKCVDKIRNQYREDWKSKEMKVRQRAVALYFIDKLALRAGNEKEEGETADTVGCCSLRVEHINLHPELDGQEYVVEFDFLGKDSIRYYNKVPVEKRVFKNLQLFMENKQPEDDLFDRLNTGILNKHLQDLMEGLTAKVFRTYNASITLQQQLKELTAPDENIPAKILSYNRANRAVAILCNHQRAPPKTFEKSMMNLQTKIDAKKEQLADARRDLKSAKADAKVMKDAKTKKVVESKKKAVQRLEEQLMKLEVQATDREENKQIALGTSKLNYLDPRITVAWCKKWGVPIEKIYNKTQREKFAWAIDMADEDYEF
The experiment in a line: Topoisomerase I-DNA complexes in LS513 cells. The format is cell-based. Conditions: factor 25%, 50 μM irinotecan. The protocol: Three different concentrations of DNA (recovered from the DNA peak fractions of each CsCI gradient) were spotted onto the membrane.
The blot was placed on a phosphorimager and signal strengths from the 2 μg slots were quantified. Based upon comparison to a known standard of purified topoisomerase I on the same blot, the signals are expressed as ng or topoisomerase I per ml of DNA=no additions (i.e., untreated). The data are quantified in Table 22 and FIG. 35.

Assay [4] deals with caspase-8. The experiment in a line: Caspase-8 activity, colorimetric, colorectal cancer cells. The format is cell-based, human. The procedure:
as §1

For assay [5], the system named is FasR (CD95) of SW480 cells. The experiment in a line: FasR (CD95) expression by flow cytometry, SW480. It is filed as cell-based, human. The protocol:
as §2
In general terms: A flow cytometer gives signals particle by particle.

The next assay relates to LS513 cells. Description: Proliferation assay with median effect analysis, LS513. It is filed as cell-based. As to conditions: Homo sapiens, LS-513, topotecan 1 μg/ml, supernatant 25% v/v, antibodies 10 μg/ml, read-out: Fractional Inhibition. The protocol: (§3) MTS was added for the final 5 hours of culture as recommended by the manufacturer (CelTiter, 96 AQueous Non-Radioactive Cell Proliferation Assay, Promega, Madison, Wis.), and the absorbence was read in a DigiScan reader (ASYS Hitech, Austria) at A492 nm. Samples were evaluated in triplicate. Tumor cells cultured in maintenance media with no addition and the maintenance media alone were used as controls. Fractional inhibition was determined by the following formula: [formula]
According to this method, “synergy” is indicated by a Cl of less than 1, “addition” by a Cl equal to 1, and “antagonism” by a Cl greater than 1. A Cl of less than 0.3 is considered to represent “strong synergism”, and a Cl greater than 3.3 is considered to represent “strong antagonism”.

For assay [6], the system named is Fas (CD95) of SKBR3 cells. The experiment in a line: Fas (CD95) expression by flow cytometry, SKBR3. It is filed as cell-based, human. As to conditions: tamoxifen 10 μg/ml. The protocol:
as §2, with “assess Fas” for “assess FasR”, “cycle. Cells were reacted sequentially with mAb to Fas (CD95) and then with a fluorescenated goat anti-mouse antibody, according to the recommendations of the manufacturer. Percent fluorescent cells and fluorescence intensity was determined using an Epics Elite cytofluorograph (Coulter Corp.). All samples were compared to their isotype-matched controls.” for “cycle.”, “cytometer” for “cytometer (Coulter Corporation)”, “using” for “using the”, “LT program, as described above.” for “LT program (Verity Software House, Inc., Topsham, Me.).”, “G1-G0, S,” for “G1-G0, S”

For the next assay, the system named is SKBR3 cells. Description: Tumor proliferation assay (MTS), SKBR3. It is filed as cell-based, human. Conditions: tamoxifen 10 μg/ml; for inhibition at 10 µg/mL: Homo sapiens, SKBR3, Factor C 5% v/v, read-out: Fractional Inhibition. The procedure: MTS was added for the final 5 hours of culture as recommended by the manufacturer (CeiTiter 96 AQueous, Non-Radioactive Cell Proliferation Assay; Promega, Madison, Wis.), and the absorbence was read in a DigiScan reader (ASYS Hitech, Austria) at A492 nm. Samples were evaluated in triplicate. Tumor cells cultured in maintenance media with no addition and the maintenance media alone were used as controls. Fractional inhibition was determined by the formula set forth above.
The combined effects of the drugs and supernatants were analyzed by the median effect method of Chou and Talalay using CalcuSyn software (see above). […] According to this method, “synergy” is indicated by a Cl of less than 1, “addition” by a Cl equal to 1, and “antagonism” by a Cl greater than 1. A Cl of less than 0.3 is considered to represent “strong synergism”, and a Cl greater than 3.3 is considered to represent “strong antagonism”.

For assay [7], the system named is caspase-8. Description: Caspase-8 activity, SKBR3. It is filed as cell-based, human. As to conditions: Factor C 5% v/v, tamoxifen 10 μg/ml. The protocol: (§4) Caspase-3 and caspase-8 activities were determined using a calorimetric assay kit (R&D Systems, Inc., Minneapolis, Minn.). Assays were conducted according to the instructions of the manufacturer. Protein kinase C, Prote3in kinase c alpha and delta levels were determined by immunoprecipitation and Western blotting, as previously described. Hofmeister, et al., “Clustered CD20 induced apoptosis: src-family kinase, the proximal regulator of tyrosine phosphorylation, calcium influx, and caspase 3-dependent apoptosis”, Blood Cells Mol Dis, 26:133-43, 2000.

Assay [8] relates to caspase-3. Description: Caspase-3 activity, SKBR3. The format is cell-based, human. Conditions: Factor C 5% v/v, tamoxifen 10 μg/ml. The procedure:
as §4

The test system of a further assay is SW480 cells. The experiment in a line: Proliferation assay (MTS), SW480. It is filed as cell-based, human. Conditions: Table 13; supernatant 25% v/v; IFN-γ, TNF-α 1,000 U/ml; antibodies 10 μg/ml. The protocol:
as §3, with “Unstimulated and stimulated supernatants, as well as the expansion media, were added at a range of volumes to SW480, LS174T, or Jurkat cells or cultured in their maintenance media in 24-well plates for 96 hours. MTS” for “MTS”

The target of assay [9] is soluble Fas ligand (sFasL) in supernatants of anti-CD3/IL-2 activated-expanded T cells (human) (UniProt P48023). The experiment in a line: cell-based or functional assay.

Where a name gives a salt, the structure may show the parent alone. Read-outs that look alike come from different tables or passages of the source.

Sequence of soluble Fas ligand (sFasL) in supernatants of anti-CD3/IL-2 activated-expanded T cells (human) (P48023 130-281 limits assumed): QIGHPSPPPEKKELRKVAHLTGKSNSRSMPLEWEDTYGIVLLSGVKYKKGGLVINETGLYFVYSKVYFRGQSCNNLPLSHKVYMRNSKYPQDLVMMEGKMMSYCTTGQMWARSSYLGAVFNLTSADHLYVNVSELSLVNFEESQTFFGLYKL

In the case of `CCc1c2c(nc3ccc(OC(=O)N4CCC(N5CCCCC5)CC4)cc13)-c1cc3c(c(=O)n1C2)COC(=O)[C@]3(O)CC` [CPT, Irinotecan HCl], the Caspase-3 with caspase-3 [1] (LS513 Cells) and in the assay on caspase-3 [1] (SW480 Cells) was 0.12 throughout. The CD95 in [2] and in assay [5] was 13 in each case. Moreover, the “topoisomerase I-DNA complexes signal” value was 3.93 ng or topoisomerase I per ml of DNA in assay [3] (Time 1 hrs), 4.83 ng or topoisomerase I per ml of DNA in assay [3] (Time 12 hrs) and 5.37 ng or topoisomerase I per ml of DNA in assay [3] (Time 48 hrs). Besides, the Caspase-8 with caspase-8 [4] (LS513 Cells) and with caspase-8 [4] (SW480 Cells) was 0.11 throughout.

Take `CC[C@@]1(O)C(=O)OCc2c1cc1n(c2=O)Cc2cc3c(CN(C)C)c(O)ccc3nc2-1` [TPT, Topotecan]: in the assay with LS513 cells, the inhibition (commonly the share of the control response that was lost under treatment) at 1 µg/mL came out at 51%.

In turn, `CC/C(=C(\c1ccccc1)c1ccc(OCCN(C)C)cc1)c1ccccc1` [Tamoxifen] returned a CD95 in assay [6] (Table 27, SKBR3 cells) of 11. Also, in [6] (Table 29, SKBR3, CD95 mean cell fluorescence, Factor C 5% v/v), the “CD 95 Cells” value was found to be 1.8. Also, the inhibition at 10 µg/mL with SKBR3 cells (SK-BR-3, Table 28, blocking antibody 50 μg/ml) was 32%; with SKBR3 cells (SK-BR-3, Table 29), 44.5%. Moreover, the F1 with SKBR3 cells (Table 27, SKBR3 cells) was determined as 0.28. For the same molecule, in the assay with caspase-8 [7], the Caspase-8 was determined as 0.01. In the assay on caspase-3 [8], the Caspase-3 stood at 0.12.

B1: IFN: human recombinant IFN-γ (protein, UniProt P01579 24-161, looked up)
Interferon gamma: QDPYVKEAENLKKYFNAGHSDVADNGTLFLGILKNWKEESDRKIMQSQIVSFYFKLFKNFKDDQSIQKSVETIKEDMNVKFFNSNKKKRDDFEKLTNYSVTDLNVQRKAIHELIQVMAELSPAAKTGKRKRSQMLFRG
Turning to B1, in the assay with SW480 cells, the “Fractional Inhibition - Run 1” value is listed as 0.01 and the “Fractional Inhibition - Run 2” value came out at 0.011.

B2: anti-FasL antibody NOK1 (antibody, from another filing, V domains shown)
VH: VQLQESGPELVKPGASVKISCKASGYAFSSSWMNWVKQRPGKGLEWIGRIYPGDGDTNDNGKFKGKATLTADKSSSTAYMQLSSLTSEDSAVYFCARSYYYDGSPWFTYWGQGTTVTVSS
VL: DIQMTQSPSSLSASLGDRVTISCRASQDISNYLNWYQQKPDGTVKLLIYYTSRLHSGVPSRFSGSGSGTDYSLTISNLEPEDIATYFCQQYSEFPWTFGGGTKLEIKR
As to B2, in assay [9], the Fractional Inhibition - Run 1, Supernatant + anti-FasL (supernatant alone 0.36) is 0.15; the Fractional Inhibition - Run 2, Supernatant + anti-FasL (supernatant alone 0.41) amounted to 0.21; the Fractional Inhibition, Sup + TPT + anti-FasL on LS513 cells (Sup + TPT alone 0.84) was 0.69.
